≈ marks a conversion by molar mass, not a printed value.
Key:
[1] = tested on: Enterococcus faecium; assay: Antimicrobial activity against Enterococcus faecium QF31 harboring erythromycin resistance rRNA methylase B and chloramphenicol-florfenicol resistance methylase assessed as inhibition of visible growth of bacteria incubated for 20 hrs by broth microdilution method; type: functional
[2] = tested on: Staphylococcus aureus; assay: Antimicrobial activity against Staphylococcus aureus ATCC 29213 assessed as inhibition of visible growth of bacteria incubated for 20 hrs by broth microdilution method; type: functional
[3] = tested on: Enterococcus faecalis; assay: microbe, parasite or virus in culture; type: functional; conditions: SF23-1, time 20 hrs
Description: Antimicrobial activity against Enterococcus faecalis SF23-1 harboring erythromycin-resistance rRNA methylase B, tetracycline efflux protein L and chloramphenicol-florfenicol resistance methylase assessed as inhibition of visible growth of bacteria incubated for 20 hrs by broth microdilution method

[4] = tested on: Streptococcus suis; assay: Antimicrobial activity against Streptococcus suis P1/7 assessed as inhibition of visible growth of bacteria incubated for 20 hrs by broth microdilution method; type: functional
[5] = tested on: Enterococcus faecium; assay: Antimicrobial activity against Enterococcus faecium HFY01 assessed as inhibition of visible growth of bacteria incubated for 20 hrs by broth microdilution method; type: functional
[6] = tested on: Pseudomonas aeruginosa; assay: Antimicrobial activity against Pseudomonas aeruginosa PA01 assessed as inhibition of visible growth of bacteria incubated for 20 hrs by broth microdilution method; type: functional
[7] = tested on: Enterococcus faecalis; assay: Antimicrobial activity against Enterococcus faecalis J2 harboring erythromycin-resistance rRNA methylase B and oxazolidinone phenicol transferable resistance gene assessed as inhibition of visible growth of bacteria incubated for 20 hrs by broth microdilution method; type: functional
[8] = tested on: Salmonella enteritidis; assay: Antimicrobial activity against Salmonella enteritis S1 assessed as inhibition of visible growth of bacteria incubated for 20 hrs by broth microdilution method; type: functional, Salmonella enterica subsp. enterica serovar Enteritidis; conditions: Salmonella enterica
[9] = tested on: Enterococcus faecium; assay: Antimicrobial activity against Enterococcus faecium MC38 harboring erythromycin resistance rRNA methylase B and oxazolidinone-phenicol transferable resistance gene assessed as inhibition of visible growth of bacteria incubated for 20 hrs by broth microdilution method; type: functional
[10] = tested on: Staphylococcus aureus; assay: Antimicrobial activity against Staphylococcus aureus YZSA-24 harboring erythromycin resistance rRNA methylase C and methicillin resistance gene resistance locus assessed as inhibition of visible growth of bacteria incubated for 20 hrs by broth microdilution method; type: functional
[11] = tested on: Enterococcus faecalis; assay: Antimicrobial activity against Enterococcus faecalis ES01 harboring erythromycin-resistance rRNA methylase B and vanB-type vancomycin-resistance locus assessed as inhibition of visible growth of bacteria incubated for 20 hrs by broth microdilution method; type: functional
[12] = tested on: Pseudomonas aeruginosa; assay: Antimicrobial activity against Pseudomonas aeruginosa PA14 assessed as inhibition of visible growth of bacteria incubated for 20 hrs by broth microdilution method; type: functional
[13] = tested on: Staphylococcus aureus; assay: Antimicrobial activity against Staphylococcus aureus YZSA-15 harboring erythromycin resistance rRNA methylase C and vancomycin resistance locus assessed as inhibition of visible growth of bacteria incubated for 20 hrs by broth microdilution method; type: functional
[14] = tested on: Enterococcus faecalis; assay: Antimicrobial activity against Enterococcus faecalis JH2-2 assessed as inhibition of visible growth of bacteria incubated for 20 hrs by broth microdilution method; type: functional
[15] = tested on: Streptococcus pyogenes; assay: Antimicrobial activity against Streptococcus pyogenes DL02 harboring erythromycin-resistance rRNA methylase B assessed as inhibition of visible growth of bacteria incubated for 20 hrs by broth microdilution method; type: functional
[16] = tested on: Acinetobacter baumannii; assay: Antimicrobial activity against Acinetobacter baumannii 7979 assessed as inhibition of visible growth of bacteria incubated for 20 hrs by broth microdilution method; type: functional
[17] = tested on: Klebsiella pneumoniae; assay: Antimicrobial activity against Klebsiella pneumoniae 9-1 assessed as inhibition of visible growth of bacteria incubated for 20 hrs by broth microdilution method; type: functional
[18] = tested on: Streptococcus agalactiae; assay: Antimicrobial activity against Streptococcus agalactiae DL03 harboring erythromycin-resistance rRNA methylase B assessed as inhibition of visible growth of bacteria incubated for 20 hrs by broth microdilution method; type: functional
[19] = tested on: Acinetobacter baumannii; assay: Antimicrobial activity against Acinetobacter baumannii AB11 assessed as inhibition of visible growth of bacteria incubated for 20 hrs by broth microdilution method; type: functional
[20] = tested on: Staphylococcus aureus; assay: Antimicrobial activity against Staphylococcus aureus YZSA-21 harboring erythromycin resistance rRNA methylase C assessed as inhibition of visible growth of bacteria incubated for 20 hrs by broth microdilution method; type: functional

Structure (SMILES) | MIC [1] [µg/mL] | MIC [2] [µg/mL] | MIC [3] [µg/mL] | MIC [4] [µg/mL] | further results
CC1(C)C/C(=C\c2ccc(-c3ccc(Cl)c(C(F)(F)F)c3)o2)c2nc3ccccc3c(C(=O)O)c2C1 | 8 (≈ 15.6 µM) | 32 (≈ 62.5 µM) | 4 (≈ 7.81 µM) | 32 (≈ 62.5 µM) | –
FC(F)(F)c1cc(-c2ccc(/C=C3\CCCc4c3nc3ccccc3c4Cl)o2)ccc1Cl | 64 (≈ 135 µM) | > 64 | > 64 | > 64 | –
O=C(O)C1=c2ccccc2=NC2/C(=C/c3cccc(-c4ccc(Cl)c(C(F)(F)F)c4)c3)CCC12 (configuration not stated) | > 64 | > 64 | > 64 | > 64 | –
O=C(O)c1c2c(nc3ccccc13)/C(=C/c1ccc(-c3ccc(Cl)cc3)o1)CCC2 | 16 (≈ 38.5 µM) | 16 (≈ 38.5 µM) | > 64 | 32 (≈ 76.9 µM) | –
CC1(C)C/C(=C\c2ccc(-c3cccc(Cl)c3Cl)o2)c2nc3ccccc3c(C(=O)O)c2C1 | 8 (≈ 16.7 µM) | 16 (≈ 33.4 µM) | 8 (≈ 16.7 µM) | > 64 | –
O=C(O)c1c2c(nc3ccccc13)/C(=C/c1ccc(-c3cccc(Cl)c3)o1)CCC2 | 16 (≈ 38.5 µM) | 16 (≈ 38.5 µM) | > 64 | 16 (≈ 38.5 µM) | –
CC1C/C(=C\c2ccc(-c3ccc(Cl)cc3)o2)c2nc3ccccc3c(C(=O)O)c2C1 (racemic) | 16 (≈ 37.2 µM) | 8 (≈ 18.6 µM) | > 64 | 32 (≈ 74.4 µM) | –
COc1ccc(-c2ccc(/C=C3\CC(C)Cc4c3nc3ccccc3c4C(=O)O)o2)cc1 (racemic) | 16 (≈ 37.6 µM) | > 64 | > 64 | 32 (≈ 75.2 µM) | –
CC1C/C(=C\c2ccc(-c3ccc(Cl)c(C(F)(F)F)c3)o2)c2nc3ccccc3c(C(=O)O)c2C1 (racemic) | 8 (≈ 16.1 µM) | 2 (≈ 4.02 µM) | 8 (≈ 16.1 µM) | 32 (≈ 64.3 µM) | –
CC1C/C(=C\c2ccc(-c3cccc(Cl)c3Cl)o2)c2nc3ccccc3c(C(=O)O)c2C1 (racemic) | 8 (≈ 17.2 µM) | 2 (≈ 4.31 µM) | 8 (≈ 17.2 µM) | 64 (≈ 138 µM) | –
CC1C/C(=C\c2ccc(-c3cccc(Cl)c3Cl)cc2)c2nc3ccccc3c(C(=O)O)c2C1 (racemic) | 8 (≈ 16.9 µM) | 2 (≈ 4.22 µM) | 8 (≈ 16.9 µM) | > 64 | –
CC1C/C(=C\c2ccc(-c3ccc(Cl)c(C(F)(F)F)c3)o2)c2nc3ccccc3c(C(=O)N3CCN(C)CC3)c2C1 (racemic) | > 64 | > 64 | > 64 | > 64 | –
CC1C/C(=C\c2ccc(-c3ccc(Cl)c(C(F)(F)F)c3)nc2)c2nc3ccccc3c(C(=O)O)c2C1 (racemic) | 8 (≈ 15.7 µM) | 4 (≈ 7.86 µM) | 8 (≈ 15.7 µM) | > 64 | –
CC1C/C(=C\c2cccc(-c3ccc(Cl)c(C(F)(F)F)c3)c2)c2nc3cc(N4CCOCC4)ccc3c(C(=O)O)c2C1 (racemic) | 4 (≈ 6.74 µM) | 8 (≈ 13.5 µM) | 32 (≈ 54 µM) | 8 (≈ 13.5 µM) | –
CC1C/C(=C\c2cccc(-c3ccc(Cl)c(C(F)(F)F)c3)c2)c2nc3cc(N4CCN(C)CC4)ccc3c(C(=O)O)c2C1 (racemic) | 8 (≈ 13.2 µM) | 16 (≈ 26.4 µM) | 8 (≈ 13.2 µM) | 8 (≈ 13.2 µM) | –
CC1C/C(=C\c2cccc(-c3ccc(Cl)c(C(F)(F)F)c3)c2)c2nc3ccccc3c(C(N)=O)c2C1 (racemic) | > 64 | > 64 | > 64 | > 64 | –
CC1C/C(=C\c2ccco2)c2nc3ccccc3c(C(=O)O)c2C1 (racemic) | 16 (≈ 50.1 µM) | > 64 | > 64 | 32 (≈ 100 µM) | –
COc1ccc2nc3c(c(C(=O)O)c2c1)CC(C)C/C3=C\c1ccc(-c2ccc(Cl)c(C(F)(F)F)c2)cc1 (racemic) | 4 (≈ 7.44 µM) | 4 (≈ 7.44 µM) | 4 (≈ 7.44 µM) | > 64 | –
Cc1ccc(-c2ccc(/C=C3\CC(C)Cc4c3nc3ccccc3c4C(=O)O)o2)c(Cl)c1 (racemic) | 16 (≈ 36 µM) | 4 (≈ 9.01 µM) | 8 (≈ 18 µM) | > 64 | –

Structure (SMILES) | MIC [1] [µg/mL] | MIC [2] [µg/mL] | MIC [3] [µg/mL] | MIC [4] [µg/mL] | further results
COc1ccc2nc3c(c(C(=O)O)c2c1)CC(C)C/C3=C\c1ccc(-c2ccc(Cl)c(C(F)(F)F)c2)o1 (racemic) | > 64 | 32 (≈ 60.6 µM) | 64 (≈ 121 µM) | 64 (≈ 121 µM) | –
CC1C/C(=C\c2ccc(-c3ccc([N+](=O)[O-])cc3)o2)c2nc3ccccc3c(C(=O)O)c2C1 (racemic) | 64 (≈ 145 µM) | 64 (≈ 145 µM) | > 64 | > 64 | –
CCCCCCCCc1ccc(-c2ccc(/C=C3\CC(C)Cc4c3nc3ccc(OC)cc3c4C(=O)O)cc2)cc1 (racemic) | 8 (≈ 14.6 µM) | > 64 | 16 (≈ 29.2 µM) | 32 (≈ 58.4 µM) | –
CC1C/C(=C\c2ncc([N+](=O)[O-])n2C)c2nc3ccccc3c(C(=O)O)c2C1 (racemic) | > 64 | > 64 | > 64 | > 64 | –
CC1C/C(=C\c2cccc(-c3ccc(Cl)c(C(F)(F)F)c3)c2)c2nc3ccc(O)cc3c(C(=O)O)c2C1 (racemic) | 8 (≈ 15.3 µM) | 8 (≈ 15.3 µM) | 16 (≈ 30.5 µM) | 4 (≈ 7.63 µM) | –
CC1C/C(=C\c2cccc(-c3ccc(Cl)c(C(F)(F)F)c3)c2)c2nc3ccccc3c(C(=O)O)c2C1 (racemic) | 4 (≈ 7.87 µM) | 2 (≈ 3.94 µM) | 4 (≈ 7.87 µM) | > 64 | –
CC1C/C(=C\c2nc(-c3ccc(Cl)c(C(F)(F)F)c3)cs2)c2nc3ccccc3c(C(=O)O)c2C1 (racemic) | 32 (≈ 62.1 µM) | 16 (≈ 31.1 µM) | 16 (≈ 31.1 µM) | 64 (≈ 124 µM) | –
CC1C/C(=C\c2ccc(-c3c(Cl)cc(C(F)(F)F)cc3Cl)cc2)c2nc3ccccc3c(C(=O)O)c2C1 (racemic) | 8 (≈ 14.7 µM) | 4 (≈ 7.37 µM) | 8 (≈ 14.7 µM) | > 64 | –
CC1C/C(=C\c2cccc(-c3cccc(Cl)c3Cl)c2)c2nc3ccccc3c(C(=O)O)c2C1 (racemic) | 8 (≈ 16.9 µM) | 4 (≈ 8.43 µM) | 8 (≈ 16.9 µM) | > 64 | –
Cc1cc(/C=C2\CC(C)Cc3c2nc2ccccc2c3C(=O)O)cc(C)c1Oc1ccc([N+](=O)[O-])cc1 (racemic) | 8 (≈ 16.2 µM) | 4 (≈ 8.09 µM) | 16 (≈ 32.4 µM) | > 64 | –
COc1ccc2nc3c(c(C(=O)O)c2c1)CC(C)C/C3=C\c1ccc(Oc2c(Cl)cc(N)cc2Cl)cc1 (racemic) | 8 (≈ 14.9 µM) | 4 (≈ 7.47 µM) | 16 (≈ 29.9 µM) | 64 (≈ 120 µM) | –
CCCCCCc1ccc(-c2ccc(/C=C3\CC(C)Cc4c3nc3ccc(OC)cc3c4C(=O)O)cc2)cc1 (racemic) | 4 (≈ 7.7 µM) | 16 (≈ 30.8 µM) | 8 (≈ 15.4 µM) | 32 (≈ 61.6 µM) | –
Cc1cc(/C=C2\CC(C)Cc3c2nc2ccccc2c3C(=O)O)cc(C)c1O (racemic) | > 64 | > 64 | > 64 | > 64 | –
CC1C/C(=C\c2ccc(-c3ccc(Cl)c(Cl)c3)o2)c2nc3ccccc3c(C(=O)O)c2C1 (racemic) | 16 (≈ 34.5 µM) | 8 (≈ 17.2 µM) | 8 (≈ 17.2 µM) | > 64 | –
CC1C/C(=C\c2cccc(-c3ccc(Cl)c(C(F)(F)F)c3)c2)c2nc3ccccc3cc2C1 (racemic) | > 64 | > 64 | > 64 | > 64 | –
CC1C/C(=C\c2cc3ccc(Br)cc3s2)c2nc3ccccc3c(C(=O)O)c2C1 (racemic) | 64 (≈ 138 µM) | 16 (≈ 34.5 µM) | 16 (≈ 34.5 µM) | 64 (≈ 138 µM) | –
COc1ccc2nc3c(c(C(=O)O)c2c1)CC(C)C/C3=C\c1cccc(NC(=O)c2cccc(Cl)c2Cl)c1 (racemic) | > 64 | > 64 | > 64 | > 64 | –
CC1C/C(=C\c2ccc(-c3c(Cl)cc(Cl)cc3Cl)cc2)c2nc3ccccc3c(C(=O)O)c2C1 (racemic) | 8 (≈ 15.7 µM) | 2 (≈ 3.93 µM) | 4 (≈ 7.86 µM) | > 64 | –
CC1(C)S[C@@H]2[C@H](NC(=O)[C@H](N)c3ccccc3)C(=O)N2[C@H]1C(=O)O [AMPICILLIN] | 16 (≈ 45.8 µM) | 1 (≈ 2.86 µM) | – | ≤ 0.5 | MIC [5]: 1 µg/mL (≈ 2.86 µM); MIC [6]: > 32 µg/mL; MIC [7]: > 32 µg/mL; MIC [8]: 32 µg/mL (≈ 91.6 µM); MIC [9]: 32 µg/mL (≈ 91.6 µM); MIC [10]: > 32 µg/mL; MIC [11]: 16 µg/mL (≈ 45.8 µM); MIC [12]: > 32 µg/mL; MIC [13]: 2 µg/mL (≈ 5.72 µM); MIC [14]: 16 µg/mL (≈ 45.8 µM); MIC [15]: 0.5 µg/mL (≈ 1.43 µM); MIC [16]: > 32 µg/mL; MIC [17]: > 32 µg/mL; MIC [18]: 0.5 µg/mL (≈ 1.43 µM); MIC [19]: < 0.06 µg/mL; MIC [20]: 1 µg/mL (≈ 2.86 µM)

From ChEMBL document CHEMBL6078677, “Discovery and optimization of tetrahydroacridine derivatives as a novel class of antibiotics against multidrug-resistant Gram-positive pathogens by targeting type I signal peptidase and disrupting bacterial membrane” (Eur J Med Chem, 2025)
